The nature of series [1]: Control: nanofiltration without green sorption media pretreatment. The protocol:
(§1) The water samples were collected from the same site of the C-23 canal during both the dry and wet seasons. However, only wet season water samples were used in the experiment. The water samples were analyzed for both long-chain (PFOA and PFOS) and short-chain (Perfluorobutanoic acid [PFBA] and Perfluorobutanesulfonic acid [PFBS]) PFAS following the modified EPA 537.1 method (Shoemaker & Tettenhorst, 2020). Through this method, an aliquot of a 250 mL water sample containing analytes and internal standards is extracted via solid phase extraction. The extracted analytes and internal standards are then eluted with methanol and ammonium hydroxide in methanol solvent. Then the eluted samples are dried with nitrogen and reconstituted to 1 mL volume with a buffer solution. The samples are then injected into a C18 liquid chromatography column, and the PFAS compounds are separated by a gradient of pure methanol and 20 mM ammonium acetate. Finally, the eluted compounds are detected, and their concentrations are measured via tandem mass spectrometry. The method detection limits (MDLs) for PFBA, PFBS, PFOA, and PFOS were 0.5 ng·L^−1, 2 ng·L^−1, 0.5 ng·L^−1, and 1 ng·L^−1, respectively. The concentration of calcium ion (Ca^2+) was analyzed at Eurofins Flowers's Chemical Laboratories (Altamonte Springs, Florida) following EPA method 6010D using inductively coupled plasma optical emission spectroscopy (MDL=0.096 mg·L^−1). Total organic carbon (TOC) and dissolved organic carbon (DOC) were measured using a TOC analyzer following EPA method 415.3.
(§2) Water samples collected from the C-23 canal were first fortified with PFOS and PFOA and then used as influents to the pretreatment column containing one of the two green sorption media. Note the water samples were not fortified with PFBA and PFBS. The green sorption media effluent served as the feedwater for the nanofiltration unit of the proposed water treatment system. The nanofiltration membrane unit without any green sorption media-based pretreatment served as the “control.” The integration of a green sorption media (CPS or ZIPGEM) with crossflow nanofiltration is herein referred to as a water treatment system, denoted as CPS-nanofiltration or ZIPGEM-nanofiltration. The CPS and ZIPGEM column influents and effluents and nanofiltration permeates were analyzed for both long-chain (PFOS and PFOA) and short-chain (PFBS and PFBA) PFAS. FIG. 3 presents the green sorption media-nanofiltration hybrid treatment scheme.
A bench-scale crossflow filtration setup was used in these experimental methods. The experimental setup consisted of a feed tank, a centrifugal pump, three CF042 membrane cells connected to pressure gauges, check valves, and flowmeters. A recirculating chiller was used for regulating the temperature at 20° C. […]

For series [2] the following is noted: cited from earlier work.
Series [3] in a line: Fixed-bed column pretreatment of spiked C-23 canal water with CPS. To be noted: for Removal via column C3: CPS column 3, 9 h; for Removal via column C1 / Removal via column C2 / average removal percentage by media: CPS; for Removal via column C1 / Removal via column C2: 9 h; for average removal percentage by media: triplicate columns. The protocol:
as §1, §2
C-23 canal water was stored in a walk-in refrigerator at […] after collection. For the pretreatment experiment, a total of 60 L of water was used as influents to the CPS and ZIPGEM columns. Although the raw water was spiked with 70 ng·L^−1 of PFOA and PFOS each, the short-chain PFAS (PFBA, PFBS) were at their indigenous concentrations. A peristaltic pump was used to deliver the water to the columns at a constant flowrate of 14 ml·min^−1. Three columns (triplicate) with 3 ft length and 4-inch diameter containing 2,600 ml of media were set up for each media, and all samples were analyzed in triplicate (FIG. 4). The fixed-bed column experiments were run for more than 48 h, and effluents were taken at different time intervals to be used as feedwaters for the nanofiltration treatment that followed. […] At least 5 L of column effluent were collected to be used as the nanofiltration feed, and the stated effluent at 9 h for CPS was collected from 0 h until 9 h, whereas effluent at 30 h for ZIPGEM was collected from 9 h until 30 h. The collected effluents from the column study were stored in a refrigerator until they were used for the nanofiltration experiment. FIG. 4 illustrates the experimental setup for the pretreatment CPS and ZIPGEM process.
The average removal efficiencies of each media pretreatment were calculated based on PFAS concentrations in the influents and effluents of triplicate columns, as disclosed in TABLE 5. […]

Series [4] in a line: Overall removal by CPS-nanofiltration water treatment system.
Excerpt: as §2
(§3) The average removal efficiencies of each media pretreatment were calculated based on PFAS concentrations in the influents and effluents of triplicate columns, as disclosed in TABLE 5. […] The overall efficiency of the hybrid treatment was calculated by comparing the average concentrations of PFAS in the influents of the green sorption media pretreatment columns and the nanofiltration permeates, as disclosed in TABLE 6.
(§4) where C0 is the concentration of PFAS in the column influent or nanofiltration feed in ng·L^−1, and where Ce is the concentration of PFAS in the column effluent or nanofiltration permeate in ng·L^−1. TABLE 7 summarizes the key findings of the green sorption media-based pretreatment and green sorption media-nanofiltration treatment, and these are explained in the subsequent subsection through an in-depth discussion and statistical analysis. It should be noted that PFOS concentration was slightly higher in the membrane permeates compared to the effluent of green sorption media pretreatment media, as disclosed in TABLE 5. The slight increase in PFOS concentration could be attributed to the filtration experimental setup that operated in a total recirculation mode. However, most of the differences were very close to the MDL for PFOS (1 ng·L^−1), which was already undetected in the green sorption media effluent

Series [5] is described as follows: Overall removal by ZIPGEM-nanofiltration water treatment system.
Excerpt: as §2, §3, §4

These results are taken from patent publication US20250091911A1, “NANOFILTRATION SYSTEM AND METHOD INCLUDING PRETREATMENT WITH GREEN SORPTION MEDIA” (University of Central Florida Research Foundation, Inc., priority 2023, published 2025).

By pKa is commonly meant the negative logarithm of the acid dissociation constant. As to `O=S(=O)(O)C(F)(F)C(F)(F)C(F)(F)C(F)(F)F` [PFBS, Perfluorobutanesulfonic acid], the “% Removal by Control, O” value in series [1] is 44%. For the same compound, the pKa in series [2] is recorded as 0.14. In addition, in series [3], the “Removal via column C3” value came to 25%. Also, in series [3], the “Removal via column C1” value was determined as 20%. In addition, the “Removal via column C2” value in series [3] is recorded as 27%. Also, the “average removal percentage by media” value in series [3] came out at 24. Moreover, the “O = overall removal by water treatment system” value (from here on “O = overall removal”) in series [4] (column 1) came to 41%; in series [4] (column 2) it was 38%; in series [4] (column 3), 52%; in series [5] (column 1), 28%; in series [5] (column 2), 35%; in series [5] (column 3), 35%.

Turning to `O=C(O)C(F)(F)C(F)(F)C(F)(F)F` [PFBA, Perfluorobutanoic acid], in series [1], the “% Removal by Control, O” value is on record as 67%. Besides, the pKa in series [2] was 0.40. Besides, in series [3], the “Removal via column C3” value is reported as 29%. The “Removal via column C1” value in series [3] was found to be 21%. The “Removal via column C2” value in series [3] came to 24%. In addition, the “average removal percentage by media” value in series [3] amounted to 25. In addition, the “O = overall removal” value in series [4] (column 1) is recorded as 58%; in series [4] (column 2), 45%; in series [4] (column 3), 53%; in series [5] (column 1), 40%; in series [5] (column 2) it was 36%; in series [5] (column 3), 41%.

In the case of `O=S(=O)(O)C(F)(F)C(F)(F)C(F)(F)C(F)(F)C(F)(F)C(F)(F)C(F)(F)C(F)(F)F` [PFOS, Perfluorooctanesulfonic acid], the “% Removal by Control, O” value in series [1] is 84%. Also, the pKa in series [2] was 0.14. In addition, in series [3], the “Removal via column C3” value is 100%. Moreover, the “Removal via column C1” value in series [3] was determined as 100%. Also, the “Removal via column C2” value in series [3] is given as 100%. For the same compound, the “average removal percentage by media” value in series [3] stood at 100. Further, the “O = overall removal” value in series [4] (column 1), in series [4] (column 2), in series [4] (column 3), in series [5] (column 1), in series [5] (column 2) and in series [5] (column 3) was 100% in each case.

For `O=C(O)C(F)(F)C(F)(F)C(F)(F)C(F)(F)C(F)(F)C(F)(F)C(F)(F)F` [PFOA, Perfluorooctanoic acid], in series [1], the “% Removal by Control, O” value was found to be 82%. Moreover, the pKa in series [2] is reported as −0.20. Moreover, the “Removal via column C3” value in series [3] came to 88%. The “Removal via column C1” value in series [3] is on record as 96%. Besides, in series [3], the “Removal via column C2” value turned out to be 85%. Besides, the “average removal percentage by media” value in series [3] was 90. The “O = overall removal” value turned out to be 98% in series [4] (column 1); 94% in series [4] (column 2); 97% in series [4] (column 3); 73% in series [5] (column 1); 82% in series [5] (column 2); 70% in series [5] (column 3).
